Patent US9695179B2, “Methods and compositions for inhibition of bromodomain-containing proteins” (CONVERGENE LLC, priority 2013, dated 2017)

Columns and labels:
[1] = tested on: MM1.S Cells (Multiple Myeloma); assay: In vitro cell viability, MM1.S; format: cell-based; conditions: Homo sapiens
Method: [Worded in the source for another cell line; this cell line is reported under the same test.] (§1) MV4-11 acute myeloid leukemia cells (American Type Culture Collection, Manassas, Va.) were added to 96-well clear bottom assay plates containing RPMI-1640 medium supplemented with 10% fetal bovine serum (FBS) at approximately 30,000 cells/well and incubated for 24 hours at 37° C. with 5% CO2 and 95% humidity. Control wells containing no cells were included to measure background fluorescence signal. Test compounds were dissolved at […] and diluted two-fold in DMSO to produce a working stock of compound solutions. Aliquots of the working stock solutions were subsequently diluted 100-fold in basal RPMI-1640 medium which was then further diluted 10-fold to the assay plate containing the cells to provide 10 test concentrations ranging from 0.04 μM-20 μM. Following a 72-hour incubation period, viability of the cells was determined by the AlamarBlue® assay (Life Technologies, Carlsbad, Calif.) following the manufacturer's protocol. Prior to generation of dose response curves, the data were background subtracted using the no cell control values (mean+/−standard deviation) and fluorescence values versus Log10 concentration of test compounds were plotted using GraphPad Prism. The resulting sigmoidal curve was then fit to the graph and IC50 values were calculated using a 4 parameter (4PL) algorithm using the following equation: 4(PL)F(x)=(A−D)/(1+(x/c)^B+D, where A=lower asymptote (baseline response), D=upper asymptote (maximum response), C=drug concentration that provokes a response halfway between A and D, B=slope of the curve. The results for selected compounds are set forth in Table 7.

[2] = tested on: MV4-11 acute myeloid leukemia cells; assay: In vitro cell viability (AlamarBlue), MV4-11; format: cell-based; conditions: Homo sapiens, MV4-11 cells, 72-hour incubation, read-out: In Vitro Cell Viability (IC50) MV4-11 Cells (AML)
Method: as §1

BRD4-BD1-BD2 = BRD4-BD1-BD2 (Homo sapiens (Human), UniProt O60885); assay: AlphaScreening assay, recombinant BRD4-BD1-BD2 and BET Ligand; format: binding; conditions: 2.5 nM BRD4-BD1-BD2, BET Ligand
Method: Assays were performed by AlphaScreening technology using a recombinant BRD4-BD1-BD2 and BET Ligand. The AlphaScreening signal from the assay was correlated with the amount of BET Ligand binding to the bromodomain. The compounds were diluted in 50% DMSO and 1 μl of the dilution was added to a 10 μl reaction so that the final concentration of DMSO is 5% in all of reactions. All reactions were conducted at room temperature. The 9 μl reaction mixture in BRD Assay Buffer contains 2.5 nM BRD4-BD1-BD2 and the indicated amount of the inhibitor, and the reaction mixture were incubated for 30 min followed by additional 30 min incubation after the addition of 1 μl of BET Ligand (Table 2.3.1). For the negative control (blank), 1 μl of the assay buffer was added instead of the BET Ligand. After the 30 min incubation with the BET Ligand, 20 μl of BRD Detection buffer containing 10 μg/ml Glutathione acceptor beads and 10 μg/ml Streptavidin Donor beads was added and the final 30 μl mixture was incubated for 50 min in a dark room.
AlphaScreening signal was measured using EnSpire Alpha 2390 Multilabel reader (Perkin Elmer). Binding experiments were performed in duplicate at each concentration. The AlphaScreening data were analyzed using the computer software, Graphpad Prism. In the absence of the compound, the AlphaScreening signal (At) in each data set was defined as 100% activity. In the absence of the BET Ligand, the AlphaScreening signal (Ab) in each data set was defined as 0% activity. The percent activity in the presence of each compound was calculated according to the following equation: % activity=[(A−Ab)/(At−Ab)]×100, where A=the AlphaScreening signal in the presence of the compound, Ab=the AlphaScreening signal in the absence of the BET Ligand, and At=the AlphaScreening signal in the absence of the compound. The percent inhibition was calculated for certain compounds according to the following equation: % inhibition=100−% activity.

SMILES	IC50 [1] [µM]	IC50 [2] [µM]	inhibition at 10 µM (BRD4-BD1-BD2) [%]
COc1ccccc1/C=C/C(=O)c1c(-c2ccccc2)c2cc(Cl)ccc2[nH]c1=O [Compound 5, 6-chloro-3-(3-(2-methoxyphenyl)acryloyl)-4-phenylquinolin-2(1H)-one]	2.53	1.49	
COc1ccc(/C=C/C(=O)c2c(-c3ccccc3)c3cc(Cl)ccc3[nH]c2=O)cc1OC [Compound 6, 6-chloro-3-(3-(3,4-dimethoxyphenyl)acryloyl)-4-phenylquinolin-2(1H)-one]	31.9	3.57	
COc1ccc(OC)c(/C=C/C(=O)c2c(-c3ccccc3)c3cc(Br)ccc3[nH]c2=O)c1 [Compound 10, 6-bromo-3-(3-(2,5-dimethoxyphenyl)acryloyl)-4-phenylquinolin-2(1H)-one]	3	1.75	
O=C(/C=C/c1ccccc1)c1c(-c2ccncc2)c2cc(Cl)ccc2[nH]c1=O [Compound 11, 6-chloro-3-cinnamoyl-4-(pyridin-4-yl)quinolin-2(1H)-one]	4.21	0.97	
Cc1ccccc1/C=C/C(=O)c1c(-c2cccnc2)c2cc(Cl)ccc2[nH]c1=O [Compound 12, 6-chloro-4-(pyridin-3-yl)-3-(3-o-tolylacryloyl)quinolin-2(1H)-one]	2.44	1.04	
Cc1ccccc1CNC(=O)c1c(-c2ccccc2)c2cc(Cl)ccc2[nH]c1=O [Compound 13, 6-chloro-N-(2-methylbenzyl)-2-oxo-4-phenyl-1,2-dihydroquinoline-3-carboxamide]	3.1	4.73	
O=C(/C=C/c1ccccc1)c1c(-c2ccccc2)c2cc(Cl)cnc2[nH]c1=O [Compound 14, 6-chloro-3-cinnamoyl-4-phenyl-1,8-naphthyridin-2(1H)-one]	14.1	0.71	
COc1ccc(Cn2c(=O)c(-c3coc(C)n3)c(OS(=O)(=O)c3ccccc3)c3cc(Cl)ccc32)cc1 [drawing 651]			98
COc1ccc(Cn2c(=O)c(-c3coc(C)n3)c(OS(=O)(=O)c3cccc4cccnc34)c3cc(Cl)ccc32)cc1 [drawing 652]			98
COc1ccc(Cn2c(=O)c(-c3coc(C)n3)c(OS(=O)(=O)c3ccc(C)cc3)c3cc(Cl)ccc32)cc1 [drawing 653]			99
COc1ccc(Cn2c(=O)c(-c3coc(C)n3)c(OS(=O)(=O)c3ccc(F)cc3)c3cc(Cl)ccc32)cc1 [drawing 654]			99
COc1ccc(Cn2c(=O)c(-c3coc(C)n3)c(OS(=O)(=O)c3ccc(Cl)cc3)c3cc(Cl)ccc32)cc1 [drawing 655]			99
COc1ccc(Cn2c(=O)c(-c3coc(C)n3)c(OS(=O)(=O)c3ccc4ccccc4c3)c3cc(Cl)ccc32)cc1 [drawing 656]			99
COc1ccc(Cn2c(=O)c(-c3coc(C)n3)c(OS(=O)(=O)c3ccc(-c4ccccc4)cc3)c3cc(Cl)ccc32)cc1 [drawing 657]			99
